Measured values reported in patent publication US12202790B2, “Sulfonamide derivatives having selective Nox inhibiting activity” (GLUCOX BIOTECH AB, priority 2018, dated 2025).

Legend:
[1] = biological target: Nox1 expressing CHO cells (Homo sapiens (Human), UniProt Q9Y5S8); assay: Oxygen consumption in Nox1 expressing CHO cells; assay type: cell-based
[2] = tested on: Nox1, Nox2, Nox3 and Nox5; assay: Activity on Nox1, Nox2, Nox3 and Nox5; assay type: cell-based
Method: (§1) Reactive oxygen produced in whole cells or in membrane preparation of Nox1, Nox3, Nox4, Nox5 and xanthine oxidase and glucose oxidase were determined using Amplex Red as detection probe of formed H2O2. Amplex Red (10-acetyl-3,7-dihydroxyphenoxazine) in combination with HRP and co-factors reacts with H2O2 in a 1:1 stoichiometry to form a highly fluorescent resorufin excitated at 544 nm producing emission at 590 nm.
(§2) Adherent cells (CHO, HEK) were collected by trypsinization, centrifuged, washed with HBSS, counted, and resuspended in HBSS. Cells were seeded in 96-well black flat bottom plates at a density of 50,000-100,000 cells/well. All compounds were dissolved in DMSO and concentrations ranging from 0.003 to 200 μM were tested in Nox cellular assays with a final concentration of DMSO of 1%. Cells were incubated at 37° C. with the compounds for 30 minutes before measurement. Cells expressing Nox1 and Nox2 were activated with the PKC activator PMA (0.1 μM). Nox5 was activated with the Ca2+ ionophore ionomycin (1 μM) and further enforced with PMA. The CJ HEK 293 cells overexpressed Nox4 constitutively. In the HTS screen HEK 293 TRex was used and tetracycline (1 mg/ml) was added 18 h before measurement to induce Nox4 expression. Production of hydrogen peroxide by Nox in intact cells was measured using Amplex Red fluorescence as described by Jaquet V, et al., Br J Pharmacol 2011; 164:507-520. […] Fluorescence was read in a fluorescence plate reader at 37° C. every minute between 30-60 minutes.
Compounds of the invention were tested for selectivity against Nox2 in isolated neutrophils from whole blood (human), as previously described (Anvari E, et al., vide supra). Levels of ROS from PMA stimulated primary human neutrophils were measured using isoluminol-dependent chemiluminescence. […] The dye is excited by ROS and the light emitted when the excited molecules return to the ground state, relative to the amount of released ROS, is measured. […] Luminescence was detected using FluoStar Optima (BMG, Labtech). […]

Nox3 = Nox3 (Homo sapiens (Human), UniProt Q9HBY0); assay: Amplex Red assay of Nox3 expressing HEK cells; assay type: cell-based; set-up: key: The sign “—” stands for “inactive”
Chain of Nox3 (Q9HBY0 whole entry): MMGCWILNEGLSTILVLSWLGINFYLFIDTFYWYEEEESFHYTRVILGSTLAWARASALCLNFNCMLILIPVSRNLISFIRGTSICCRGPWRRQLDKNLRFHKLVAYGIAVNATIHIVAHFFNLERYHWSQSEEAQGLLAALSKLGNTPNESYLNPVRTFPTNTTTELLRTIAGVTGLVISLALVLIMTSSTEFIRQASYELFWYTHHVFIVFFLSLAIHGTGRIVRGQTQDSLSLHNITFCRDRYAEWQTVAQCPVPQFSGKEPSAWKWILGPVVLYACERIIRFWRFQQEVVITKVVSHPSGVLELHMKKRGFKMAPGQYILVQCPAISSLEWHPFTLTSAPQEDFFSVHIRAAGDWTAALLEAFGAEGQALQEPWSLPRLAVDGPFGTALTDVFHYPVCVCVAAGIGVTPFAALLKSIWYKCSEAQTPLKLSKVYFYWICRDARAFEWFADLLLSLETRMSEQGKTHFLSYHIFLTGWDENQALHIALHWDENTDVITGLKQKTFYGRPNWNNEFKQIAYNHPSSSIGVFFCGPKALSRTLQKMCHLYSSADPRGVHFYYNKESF
Chain of Nox3 (P13498 2-195 partner): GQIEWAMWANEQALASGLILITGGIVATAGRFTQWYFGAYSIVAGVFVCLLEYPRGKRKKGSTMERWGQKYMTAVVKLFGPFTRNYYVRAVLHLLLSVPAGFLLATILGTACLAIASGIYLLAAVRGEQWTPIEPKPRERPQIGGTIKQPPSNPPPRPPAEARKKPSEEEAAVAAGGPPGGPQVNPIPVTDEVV
Excerpt: HEK293 overexpressing Nox4 (CJ Nox4) cells were purchased from Redoxis, Lund, Sweden. HEK 293 cells expressing Nox5, Nox3 (HEK TRex) and CHO cells expressing Nox1, were a kind gift from Vincent Jaque Center Medical Universitaire, Geneva, Switzerland. Nox2 expressed in isolated neutrophils were isolated from whole blood (human), as previously described (Anvari E, et al., Free Radic Res 2015; 49:1308-1318).
HEK293T cells expressing tetracycline-inducible human (Nox3 or Nox4) and HEK293 cells stably expressing human Nox5 were generated as described previously (Serrander et al., 2007a,b). HEK cells were cultured in Dulbecco's modified Eagle medium (DMEM) with 4.5 g/l glucose, supplemented with FBS (10%), penicillin (100 U/ml) and streptomycin […] at 37° C. in air with 5% CO2.
as §1
as §2, with “Nox5 was activated with the Ca2+ ionophore ionomycin (1 μM) and further enforced with PMA. The CJ HEK 293 cells overexpressed Nox4 constitutively. In the HTS screen HEK 293 TRex was used and tetracycline (1 mg/ml) was added 18 h before measurement to induce Nox4 expression.” left out

glucose oxidase = glucose oxidase (Aspergillus niger, UniProt P13006); assay: Amplex Red and glucose oxidase (GO) assay; assay type: biochemical; set-up: key: The sign “—” stands for “inactive”
Chain of glucose oxidase (P13006 17-605): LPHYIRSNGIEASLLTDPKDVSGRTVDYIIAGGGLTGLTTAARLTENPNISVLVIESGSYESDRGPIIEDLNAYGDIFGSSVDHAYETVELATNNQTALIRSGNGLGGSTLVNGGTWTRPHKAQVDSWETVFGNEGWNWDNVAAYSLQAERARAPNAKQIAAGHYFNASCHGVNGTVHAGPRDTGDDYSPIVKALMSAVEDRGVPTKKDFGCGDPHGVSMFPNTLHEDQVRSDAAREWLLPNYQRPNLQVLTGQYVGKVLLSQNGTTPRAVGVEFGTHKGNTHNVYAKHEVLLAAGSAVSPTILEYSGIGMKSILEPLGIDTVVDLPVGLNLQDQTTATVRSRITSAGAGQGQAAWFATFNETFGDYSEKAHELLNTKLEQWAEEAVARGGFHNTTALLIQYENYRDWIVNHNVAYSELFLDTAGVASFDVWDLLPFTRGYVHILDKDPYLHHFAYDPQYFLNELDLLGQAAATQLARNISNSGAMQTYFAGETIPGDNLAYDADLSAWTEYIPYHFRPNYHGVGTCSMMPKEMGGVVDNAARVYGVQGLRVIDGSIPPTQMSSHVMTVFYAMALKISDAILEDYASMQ
Method: as §1
The assay was performed using a modified form of Invitrogen Amplex™ Red Glucose/Glucose Oxidase Assay Kit Cat no: A22189. Test compounds were incubated with 5 mU/ml glucose oxidase for 30 min at room temperature, followed by the addition of substrate and detection mix (final concentrations of 0.1 U/ml HRP, 10 mM glucose, 50 μM Amplex Red in phosphate buffer pH 7.4) and then fluorescence detection of hydrogen peroxide production was performed during 30 min at 37° C. in a plate reader that use excitation at 544 nm producing emission at 590 nm.

[3] = tested on: human brain micro-vascular endothelial cells; assay: In vitro stroke model: endothelial cells subjected to hypoxia and glucose deprivation; assay type: cell-based; details: hypoxia and glucose deprivation 5 h (Example 44: 6 h), viability after 24 hours of culture
Method: (§3) FIG. 1 is a bar chart showing cell viability as a ratio of basal cell viability of human brain microvascular endothelial cells subjected to hypoxia and starvation (OGD: oxygen and glucose deprivation) for 5 h and then cultured for 24 h in the absence or presence of Example 11 at a concentration of 2, 10 or 20 μM. Basal=no hypoxia or starvation, cells cultured in the presence of culture medium only. OGD=5 h of hypoxia or starvation, cells cultured in the presence of culture medium only.
as §3, with “2” for “1”, “(OGD)” for “(OGD: oxygen and glucose deprivation)”, “17” for “11”, “0.3, 3 or” for “2,”, “10” for “10 or 20”
FIG. 3 is a bar chart showing cell viability as a ratio of basal cell viability of human brain microvascular endothelial cells subjected to hypoxia and starvation (OGD: oxygen and glucose deprivation) for 6 h and then cultured for 24 h in the absence or presence of Example 44 at a concentration of from 0.6 to 9.6 μM. Basal=no hypoxia or starvation, cells cultured in the presence of culture medium only. OGD=6 h of hypoxia or starvation, cells cultured in the presence of culture medium only (*p<0.05, ***p<0.001).
Hippocampal brain slices and human brain micro-vascular endothelial cells were subjected to hypoxia and glucose deprivation (starvation) for 5 hours and were tested for viability after 24 hours of culture in the presence of Example 11 or Example 17 at different concentrations. Additionally, human brain micro-vascular endothelial cells were subjected to hypoxia and glucose deprivation (starvation) for 6 hours and were tested for viability after 24 hours of culture in the presence of Example 44 at various concentrations.

Chain of Nox1 expressing CHO cells (Q9Y5S8 whole entry): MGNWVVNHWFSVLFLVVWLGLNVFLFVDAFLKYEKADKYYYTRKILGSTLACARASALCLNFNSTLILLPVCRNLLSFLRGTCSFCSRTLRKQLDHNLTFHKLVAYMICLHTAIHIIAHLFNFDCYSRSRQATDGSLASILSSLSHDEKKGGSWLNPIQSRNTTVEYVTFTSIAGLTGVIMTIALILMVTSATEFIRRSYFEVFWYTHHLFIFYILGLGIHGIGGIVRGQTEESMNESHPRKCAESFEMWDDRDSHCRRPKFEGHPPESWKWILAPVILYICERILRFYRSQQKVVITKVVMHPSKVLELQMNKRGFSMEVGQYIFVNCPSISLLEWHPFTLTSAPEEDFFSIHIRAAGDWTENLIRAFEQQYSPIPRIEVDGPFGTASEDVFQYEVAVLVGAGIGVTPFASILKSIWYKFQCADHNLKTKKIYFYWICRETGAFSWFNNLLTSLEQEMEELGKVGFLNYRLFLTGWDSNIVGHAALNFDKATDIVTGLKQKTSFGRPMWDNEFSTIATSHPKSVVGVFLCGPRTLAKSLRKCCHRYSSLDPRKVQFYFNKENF
Chain of Nox1 expressing CHO cells (P13498 2-195 partner): as the sequence (P13498 2-195 partner) above

Structure (SMILES)	Inhibition of oxygen consumption in Nox1 expressing CHO cells [1]	Activity on Nox1, Nox2, Nox3 and Nox5 [2]	IC50 Nox3 (Nox3)	IC50 GO (glucose oxidase)	neuroprotective effect (cell viability) [3]
Cc1ccccc1CCNS(=O)(=O)c1c(C)cccc1Cl [Example 11, 2-chloro-6-methyl-N-[2-(2-methylphenyl)ethyl]benzene-1-sulfonamide]	No	inactive	—	—	neuroprotective effect
O=S(=O)(NCCc1ccccc1Cl)c1c(Cl)cc(C2CC2)cc1Cl [Example 26, 2,6-dichloro-N-[2-(2-chlorophenyl)ethyl]-4-cyclopropylbenzene-1-sulfonamide]	No	inactive	—	—	
Cc1cc(Cl)c(S(=O)(=O)NCCc2ccccc2O)c(C)c1O [Example 44, 6-chloro-3-hydroxy-N-[2-(2-hydroxyphenyl)ethyl]-2,4-dimethyl-benzenesulfonamide]					neuroprotective effect
Cc1ccccc1CCNS(=O)(=O)c1c(Cl)cc(Br)cc1Cl [Example 17, 4-bromo-2,6-dichloro-N-[2-(2-methylphenyl)ethyl]benzene-1-sulfonamide]	No	inactive	—	—	neuroprotective effect
